# Key:
# [1] = biological target: T1, Arid5a binding to OX40 ADE-like stem loop (Mus musculus, UniProt Q3U108); assay: RNA-Arid5a binding assay; conditions: Flag-Arid5a-enriched HEK293T lysate, immunoblot, FIG. 4
# T1 construct: expressed in transfected cells; host or cells: HEK293T (cell lysate)
# T1 sequence (Q3U108 1-590): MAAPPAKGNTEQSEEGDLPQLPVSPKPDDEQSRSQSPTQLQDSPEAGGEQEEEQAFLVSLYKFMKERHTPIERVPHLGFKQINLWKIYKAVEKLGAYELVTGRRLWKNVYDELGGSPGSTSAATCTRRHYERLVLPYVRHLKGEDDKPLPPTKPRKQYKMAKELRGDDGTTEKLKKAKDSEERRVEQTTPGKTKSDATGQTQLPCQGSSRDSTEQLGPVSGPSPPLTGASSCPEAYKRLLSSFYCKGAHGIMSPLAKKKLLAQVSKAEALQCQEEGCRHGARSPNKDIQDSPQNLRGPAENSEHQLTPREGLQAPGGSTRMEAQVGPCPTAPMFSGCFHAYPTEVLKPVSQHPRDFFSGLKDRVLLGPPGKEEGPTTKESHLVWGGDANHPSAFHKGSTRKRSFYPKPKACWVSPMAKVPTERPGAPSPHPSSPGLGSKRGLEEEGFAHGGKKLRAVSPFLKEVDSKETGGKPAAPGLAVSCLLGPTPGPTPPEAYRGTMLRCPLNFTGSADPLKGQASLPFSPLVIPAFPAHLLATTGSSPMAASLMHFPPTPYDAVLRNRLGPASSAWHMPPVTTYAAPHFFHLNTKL
# Protocol: An RNA-protein binding assay was performed to confirm that POE inhibits the physical binding of Arid5a to the (ADE)-like stem loop in the OX40 3′UTR. Briefly, a 3′-biotinylated OX40 ADE-like stem loop (RNA; 5′-[…]-3′) (SEQ ID NO: 2) was conjugated to streptavidin beads. The OX40 ADE-like stem loop/streptavidin bead conjugate was then mixed with Flag-Arid5a-enriched HEK293T cell lysate, washed, and proteins bound to RNA were eluted for immunoblot. Anti-Flag antibodies were used to detect Flag-Arid5a in the eluate by SDS-PAGE analysis.
# IMQ-induced psoriasis = IMQ-induced psoriasis model; format: in vivo, male BALB/c mice
# Protocol: Experimental psoriasis was induced following a modified method described previously (Sun et al. 2013). To induce disease in male BALB/c mice (6-8 weeks; n=6), imiquimod (IMG; Sichuan Med-Shine Pharmaceutical) at 5% was applied topically at 20 mg/cm^2 on the inside of the right ear for 8 consecutive days. An evaluation system for assessment of erythema and thickness of the ear was developed. Erythema was assessed using a table with red […] (0-4) and ear thickness (0-4) measured using a digital caliber on days 2, 4, 6, and 8 after first IMQ application. The sum of the two parameters scores (ranging from 0-8) was used to indicate the overall clinical score. Treatment ointment was prepared by mixing 1 mg of DMSO-dissolved POE or its representative analogs including POE A2 or POE A3 with 20 gm of Vaseline Petroleum Jelly Original (vehicle, Unilever Inc.); the mixture was then incubated at room temperature overnight. From day 0 to day 8 the mice were treated topically with the treatment ointment (40 mg/cm^2) or Vaseline (IMQ/control). The mRNAs encoding Il6 and Il17a were isolated from whole biopsies of the ear (day 8) and reverse transcribed to make cDNA. The cDNA was then amplified by real-time PCR using TaqMan Gene Expression Assays (Mm00446190_ml, Mm00439618_ml, respectively; Applied Biosystems). The relative expression of mRNAs was calculated by the ΔΔCt method and presented relative to that of IMQ control mice.
# CIA = assay: Collagen-induced arthritis (CIA) model; format: in vivo, C57BL mice
# [2] = tested on: differentiated Th17 cells; assay: Th17 differentiation of naïve CD4+CD62L+ T cells; format: cell-based, mice; conditions: 40 μM, 72 h
# Protocol: The peritoneal macrophages were stimulated in vitro with 0.5 μg/mL lipopolysaccharides (LPS) (Sigma-Aldrich) for 24 h. The CD4^+ CD62L^+ T cells were isolated and purified from spleen using the MACS isolation kit (Miltenyi). The T cells were cultured in the presence of anti-CD3/CD28 dynabeads (Invitrogen), recombinant mouse IL-6 (30 ng/mL; R&D Systems), recombinant transforming growth factor-β (TGF-β) (4 ng/mL; R&D Systems), anti-interferon-γ (IFN-γ) and anti-IL-4 (10 μg/mL; Biolegend) for 72 h to generate Th17 cells.
# The mRNAs and cytokines were quantified as follows. A first strand of cDNA was synthesized from total RNA by using the TaqMan reverse transcription kit. The cDNA was amplified in the real-time PCR system ViiA7 using TaqMan gene expression assays of OX40 (Mm01261022_m1), Stat3 (Mm01219775_m1) and the endogenous control Gapdh (Mm99999915_g1). Kits, probes and reagents were from Applied Biosystems. The relative expression of mRNAs was calculated by ΔΔCt method. For cytokines quantification in serum and cell culture supernatants, ELISA kits of IL-17a, IL-6, TNF-α (Invitrogen) were used following the manufacturer's instructions.
# Flow cytometry analysis was conducted using CD4^+ T cells cultured under Th17 cell-inducing conditions or CD4^+ T cells derived from CNS, which were fixed and stained with Per-CP-Cy5.5-conjugated anti-CD4 antibodies and PE-conjugated anti-OX40 antibodies (Biolegend). Analysis was carried out using Flowsight (Amnis).
# The anti-inflammatory activity of the Arid5a inhibitor POE was tested in vitro by measuring secretion of pro-inflammatory cytokines by macrophages and differentiated Th17 cells. Briefly, peritoneal macrophages were stimulated with LPS (0.5 μg/mL) for 24 h in presence or absence of POE (40 μM). […] The percentage of CD4^+OX40^+ T cells in the polarized Th17 cells was determined using flow cytometry; the results are shown in FIG. 3D. Stat3 mRNA expression in the polarized Th17 cells was quantified by real-time PCR and normalized to Gapdh mRNA; the results are shown relative to those of untreated Th17 cells in FIG. 3E.
# [3] = topical ointment, day 8, FIG. 8B
smiles,measurement,setting,value
"O=C(CSc1nnc(-c2ccncc2)o1)c1ccccc1 [POE, 1-Phenyl-2-(5-pyridin-4-yl-[1,3,4]oxadiazol-2-ylsulfanyl)-ethanone]",Physical binding of Arid5a to OX40 ADE-like stem loop,[1],inhibited the physical binding of Arid5a to OX40 ADE-like stem loop in a concentration-dependent manner
same,Clinical scores (erythema and thickness of the right ear),"IMQ-induced psoriasis; topical ointment 40 mg/cm^2 day 0 to 8, vs Vaseline, FIG. 8A",comparably reduced clinical scores
same,Il6 mRNA expression in whole biopsies of the right ear,IMQ-induced psoriasis; [3],suppressed mRNA expression
same,Il17a mRNA expression in whole biopsies of the right ear,IMQ-induced psoriasis; [3],suppressed mRNA expression
same,CIA clinical scores,"CIA; 0.25 mg i.p. on days 0, 3, 6, 9, 12, 15, 18, vs corn oil, FIG. 7A",comparably reduced CIA clinical scores
same,Serum level of IL-6,"CIA; 0.25 mg i.p., day 45, FIG. 7B",reduced serum levels of IL-6
same,Frequency of CD4+IL-17+ cells in the secondary lymphoid organs,"CIA; 0.25 mg i.p., day 45, flow cytometry, FIG. 7C",reduced the frequency of CD4^+IL-17^+ cells
same,Level of IL-17 in cell culture supernatant of polarized Th17 cells,"[2]; compared to untreated Th17 cells, FIG. 3C",reduces the level of IL-17
same,Frequency of CD4+OX40+ T cells in polarized Th17 cells,"[2]; flow cytometry, FIG. 3D",reduces the frequency of CD4^+OX40^+ T cells
same,Expression of Stat3 mRNA in polarized Th17 cells,"[2]; real-time PCR normalized to Gapdh, FIG. 3E",reduces the expression of Stat3 mRNA
